# Measurements: patent US11771729B2, “Maca extract and use thereof” (KAOHSIUNG MEDICAL UNIVERSITY, priority 2021, dated 2023)
# Marks after values point to notes of the source that are not given here.
# Tests used:
# RBL-2H3 cells [1] = assay: Anti-allergy test: A23187-induced β-hexosaminidase release; type: cell-based; details: for A23187-induced β-hexosaminidase release Inhibition rate (%): Table 4, isolated compounds, concentration not given (values equal 100 μM column of Table 6)
# Protocol: (§1) Equivalently divided supernatants (50 μL) of control wells and experimental wells were incubated with an equal volume (50 μL) of […] p-NAG prepared in 0.1 M citrate buffer (pH 4.5), in which the buffer is formed as a matrix of released β-hexosaminidase; the reaction, after 1 hour incubation at 37° C., was stopped by adding 100 μL of termination buffer (0.1M Na2/NaHCO3, pH 10.0), and then, the absorbance at a wavelength of 405 nm was measured with a microplate reader. The percentage of inhibiting RBL-2H3 cells from releasing β-hexosaminidase was calculated as the percentage of control (untreated stimulated cells), and azelastine (20 μM) was used as a positive control. The test results are shown in Tables 4 to 6 below, and the corresponding results are indicated as mean±SEM (the test was repeated 3 times), wherein * denotes p<0.05, ** denotes p<0.01, *** denotes p<0.001; - denotes being untested; and N/A denotes that the specimen forms mycelium added to the medium, and accordingly, the results cannot be proven.
# human neutrophil [2] = assay: Anti-neutrophil inflammation test: superoxide anion generation; type: cell-based; details: isolated compounds (10 μM) and positive controls 10 μM, fMLF/CB-activated neutrophils, mean±SEM; for inhibition at 10 µM: Homo sapiens, Neutrophil, read-out: Inhibition rate (%) Superoxide anion generation
# Protocol: (§2) Isolation of human neutrophil: According to the standard scheme of […] sedimentation, neutrophils was obtained from peripheral blood, and then, the neutrophils were purified by centrifugation and erythrocyte hypotonic degradation in a Ficoll-Hypaque gradient; and then, it was confirmed by the trypan blue exclusion test that the purified neutrophils contained more than 98% live cells, and the purified neutrophils were suspended in HBSS without calcium at 4° C. (Yang et al., 2013) prior to the test.
# The level of superoxide anion generation by neutrophil activation was measured and determined based on the ferrocytochrome c reduction method according to Yang et al., 2013. In other words, human neutrophil cells (6×10^5 cells/mL) were mixed with 0.6 mg/mL of ferrocytochrome c and 1 mmol/L of CaCl at 37° C., and then the cells were treated with the test specimens having different concentrations (that is, maca extract) or DMSO (0.1% as control) for 5 minutes; thereafter, 10 minutes before activation with 100 nM of fMLF, the cells were incubated with cytochalasin B (1 μg/mL) for 3 minutes, changes in absorbance according to the decrease in ferrocytochrome c at a wavelength of […] with continuous stirring were continuously monitored using a spectrophotometer, and reactions were calculated with and without superoxide dismutase (SOD, 100 U/mL) with dividing by the extinction coefficient of the decreased ferrocytochrome c (21.1 mM^−1 cm^−1) reduction, thereby obtaining the difference value.
# RBL-2H3 cells [3] = assay: Cell viability of RBL-2H3 cells (MTT); details: for Viability of RBL-2H3 cells at 200 μg/ml: Table 6, isolated compounds, head prints 200 μg/ml
# Protocol: Cells were cultured using DMEM medium supplemented with 10% FBS, and additional 100 U/mL penicillin and 100 μg/mL streptomycin. The cells were cultured in 10 cm Petri dishes in a 5% CO2 incubator at 37° C., the cells were secondary cultured in 80% confluent trypsin, and then seeded on culture plates at a density of 2×10^5 cells/mL for secretion measurement.
# Measurement on cell viability: RBL-2H3 cells were seeded in a 96-well plate at a concentration of 2×10^4 cells/well overnight, specimens having different concentrations (that is, maca extract, dissolved in DMSO) or untreated controls (1% DMSO in Tyrode buffer; 135 mM NaCl, 5 mM KCl, 1.8 mM CaCl, 1.0 mM MgCl2, 5.6 mM glucose, 20 mM HEPES and 1 mg/ml BSA, pH 7.4) were used to treat the cells, the media was removed from the wells after incubation at 37° C., 5% CO2, and an MTT solution (5 mg/mL) stock solution was diluted 1:10 in the medium and then added to the wells (100 μL per well); Thereafter, the cells were incubated at 37° C., 5% CO2 for 1 hours, the medium was removed, the formed Formazan crystals (which can be formed only in normal healthy cells) were dissolved in 100 μL DMSO, and the absorbance at 574 nm wavelength was measured using a microplate reader in which the plates were gently shaked before the measurement. Cell viability values for the specimens were calculated and indicated as a percentage (%) of the control groups (untreated cells).
# RBL-2H3 cells [4] = assay: Anti-allergy test: antigen-induced β-hexosaminidase release; type: cell-based; details: for Antigen-induced β-hexosaminidase release Inhibition rate (%): Table 4, isolated compounds, concentration not given
# Protocol: as §1
# human neutrophil [5] = assay: Anti-neutrophil inflammation test: elastase release; type: cell-based; details: isolated compounds (10 μM) and positive controls 10 μM, fMLF/CB-activated neutrophils, mean±SEM; for inhibition at 10 µM: Homo sapiens, Neutrophil, read-out: Inhibition rate (%) Elastase release
# Protocol: as §2
# The elastase release was used to measure degranulation of azurophilic granules in activated neutrophils (Yang et al., 2013); and the measurement was performed using methoxysuccinyl-Ala-Ala-Pro-Val-p-nitroaniline as an elastase matrix. At 37° C., neutrophils (6×10^5 cells/mL) were added to a mixture of matrix (100 μmol/L) and CaCl2 (1 mmol/L), and treated with the test specimens having different concentrations (that is, maca extract) or DMSO (0.1% as control) for 5 minutes, and then the cells were stimulated by using fMLF (100 nM)/CB (0.5 μg/mL), and changes in absorbance at the 405 nm wavelength were continuously monitored to measure the release of elastase, in which genistein and LY294002 were used as positive controls. The corresponding results are indicated as mean±SEM (the test was repeated 3 or 4 times), in which * denotes p<0.05, ** denotes p<0.01, *** denotes p<0.001; and - denotes being untested.
# [6] = test system: human CD34-positive endothelial progenitor cells (EPC); assay: Pro-angiogenic test: EPC cell growth; type: cell-based; details: 50 μM of each isolated compound, 48 hours, mean±SEM
# Protocol: Endothelial cell culture: Isolation and culture of human CD34-positive endothelial progenitor cells (EPC) were performed using conventional methods (Chen et al., 2018); human umbilical vein endothelial cells (HUVECs) were purchased from Promo Cell (Heidelberg, Germany); and EPCs and HUVECs were maintained in MV2 medium according to a known protocol (Chung et al., 2013).
# Measurement of cell growth: EPCs and HUVECs were cultured overnight at a density of 5×10^3 cells per well in a 96-well plate, and then, in the presence of the test specimen (that is, maca extract), the original medium was replaced with MV2 minimal medium and incubated for 48 hours. The measurements on EPC cell growth were as described in Yang et al., 2019.
# The results are shown in Table 1 as below, in which corresponding results are indicated as mean±SEM (the test was repeated 3 times as a whole), wherein, compared to the control group (DSMO), * denotes p<0.05, ** denotes p<0.01, *** denotes p<0.001; and - denotes being untested.
Structure (SMILES),Percentage of inhibiting A23187-induced β-hexosaminidase release (%) 10 μM/mL (RBL-2H3 cells [1]),Percentage of inhibiting A23187-induced β-hexosaminidase release (%) 100 μM/mL (RBL-2H3 cells [1]),A23187-induced β-hexosaminidase release Inhibition rate (%) (RBL-2H3 cells [1]),Inhibition rate (%) Superoxide anion generation (human neutrophil [2]) [%],Viability of RBL-2H3 cells at 200 μg/ml (RBL-2H3 cells [3]) [%],Percentage of inhibiting antigen-induced β-hexosaminidase release (%) 10 μM/mL (RBL-2H3 cells [4]),Percentage of inhibiting antigen-induced β-hexosaminidase release (%) 100 μM/mL (RBL-2H3 cells [4]) [%],Antigen-induced β-hexosaminidase release Inhibition rate (%) (RBL-2H3 cells [4]),Inhibition rate (%) Elastase release (human neutrophil [5]),Cell growth rate (%) EPC [6] [%],inhibition at 10 µM (human neutrophil [2]) [%],inhibition at 10 µM (human neutrophil [5]) [%],Percentage of inhibiting A23187-induced β-hexosaminidase release (%) 500 μM/mL (RBL-2H3 cells [1]),Percentage of inhibiting antigen-induced β-hexosaminidase release (%) 500 μM/mL (RBL-2H3 cells [4]) [%],further results
"COc1cccc(Cn2c(C=O)ccc2CO)c1 [Compound 4, 5-hydroxymethyl-1-(m-methoxybenzyl)-2-aldehyde pyrrole]",8.3 ± 1.0%,6.7 ± 1.4%,6.7 ± 1.4%,1.05 ± 0.78,96.0,16.7 ± 6.6%*,10.0 ± 4.1,10.0 ± 4.1,0.00 ± 0.59%,103 ± 1,,,,,
"CN1CCCC(n2nc(Cc3ccc(Cl)cc3)c3ccccc3c2=O)CC1 (stereo not drawn) [Azelastine, reference compound]",,,,,,,,,,,,,,,"inhibition at 20 µM (RBL-2H3 cells [1]; RBL-2H3, azelastine 20 μM, positive control, read-out: Percentage of inhibiting A23187-induced β-hexosaminidase release (%)): 47.7 ± 3.2%; Viability of RBL-2H3 cells (RBL-2H3 cells [3]; azelastine 20 μM): 88.0%; inhibition at 20 µM (RBL-2H3 cells [4]; RBL-2H3, azelastine 20 μM, positive control, read-out: Percentage of inhibiting antigen-induced β-hexosaminidase release (%)): 54.3 ± 1.8%"
"O=c1cc(N2CCOCC2)oc2c(-c3ccccc3)cccc12 [LY294002, reference compound]",,,,,,,,,,,95.3 ± 2.78,72.8 ± 4.03,,,
"COCc1ccc(C=O)n1Cc1cccc(OC)c1 [Compound 3, 5-methoxymethyl-1-(m-methoxybenzyl)-2-aldehyde pyrrole]",3.7 ± 1.5%,4.7 ± 0.7%,4.7 ± 0.7%,,95.0,13.7 ± 1.9%,10.7 ± 3.3,10.7 ± 3.3,,,,,12.7 ± 0.7%**,5.0 ± 4.1,
"O=c1c(-c2ccc(O)cc2)coc2cc(O)cc(O)c12 [Genistein, reference compound]",,,,,,,,,,,93.37 ± 0.93,44.2 ± 3.72,,,
"COCc1ccc(C=O)n1Cc1ccccc1 [Compound 5, 5-methoxymethyl-1-(benzyl)-2-aldehyde pyrrole]",21.3 ± 3.3%***,51.3 ± 4.6%***,51.3 ± 4.6*** %,21.59±5.35,94.0,9.0 ± 4.8%,11.7 ± 5.9,11.7 ± 5.9,3.33 ± 0.50** %,99 ± 5,,,57.7 ± 4.3%***,8.3 ± 3.5,"IC50 (RBL-2H3 cells [1]; Table 6, isolated compounds): 96.1 µM"
"O=Cc1ccc(CO)n1Cc1ccccc1 [Compound 6, 5-hydroxymethyl-1-(benzyl)-2-aldehyde pyrrole]",5.7 ± 1.0%,9.7 ± 2.2%,9.7 ± 2.2%,5.44 ± 2.18,100.0,10.3 ± 3.9%,3.7 ± 3.0,3.7 ± 3.0,2.69 ± 0.49** %,104 ± 4,,,26.0 ± 2.4%***,0.3 ± 0.3,
"N#CCc1cccc(O)c1 [Compound 8, 3-hydroxy-1-cyanomethylbenzene]",,,,,97.7,,,,,103 ± 2,0.45 ± 4.35,1.78 ± 2.29,,,"inhibition at 10 µM (RBL-2H3 cells [1]; RBL-2H3, read-out: Percentage of inhibiting A23187-induced β-hexosaminidase release (%) 10 μM/mL): 11 ± 0.8%; inhibition at 100 µM (RBL-2H3 cells [1]; RBL-2H3, read-out: Percentage of inhibiting A23187-induced β-hexosaminidase release (%) 100 μM/mL): 8.3 ± 3.4%; inhibition at 500 µM (RBL-2H3 cells [1]; RBL-2H3, read-out: Percentage of inhibiting A23187-induced β-hexosaminidase release (%) 500 μM/mL): 11.7 ± 1.5%; inhibition at 10 µM (RBL-2H3 cells [4]; RBL-2H3, read-out: Percentage of inhibiting antigen-induced β-hexosaminidase release (%) 10 μM/mL): 13.7 ± 3.9%; inhibition at 100 µM (RBL-2H3 cells [4]; RBL-2H3, read-out: Percentage of inhibiting antigen-induced β-hexosaminidase release (%) 100 μM/mL): 13 ± 2.6%; inhibition at 500 µM (RBL-2H3 cells [4]; RBL-2H3, read-out: Percentage of inhibiting antigen-induced β-hexosaminidase release (%) 500 μM/mL): 4 ± 3.3%"
"CC(=O)[C@@H]1CCC(=O)N1Cc1ccccc1 [Compound 1, (5S)-acetyl-1-benzylpyrrolidine-2-ketone]",2.7 ± 1.2%,4.0 ± 1.7%,,7.50 ± 1.96,95.3,3.7 ± 1.9%,5.7 ± 2.2,9.0 ± 3.7,1.59 ± 0.99%,99 ± 1,,,38.0±3.4%,9.0 ± 3.7,
